Values quoted from earlier work as cited in patent US20050272741A1, “Novel methods of treatment for Fontan patients with protein losing enteropathy” (priority 2004, published 2005).

Tested on: mesenteric bed
Settings: pretreatment with Viagra, high dose Norepinephrine

Which “Mesenteric relaxation / constriction of the mesenteric bed” value does the source give for CCCc1nn(C)c2c(=O)[nH]c(-c3cc(S(=O)(=O)N4CCN(C)CC4)ccc3OCC)nc12 [Viagra, Sildenafil] here?
The value was “even high dose Norepinephrine fails to constrict the mesenteric bed”.
